Test results reported in BindingDB's records for doi:10.1021/jm070453f (Gnf, 2007).

What was measured:
[1] = target: T1, Oxysterols receptor LXR-alpha (Homo sapiens, UniProt Q13133); test: Scintillation Proximity Assay
T1 sequence (Q13133 whole entry): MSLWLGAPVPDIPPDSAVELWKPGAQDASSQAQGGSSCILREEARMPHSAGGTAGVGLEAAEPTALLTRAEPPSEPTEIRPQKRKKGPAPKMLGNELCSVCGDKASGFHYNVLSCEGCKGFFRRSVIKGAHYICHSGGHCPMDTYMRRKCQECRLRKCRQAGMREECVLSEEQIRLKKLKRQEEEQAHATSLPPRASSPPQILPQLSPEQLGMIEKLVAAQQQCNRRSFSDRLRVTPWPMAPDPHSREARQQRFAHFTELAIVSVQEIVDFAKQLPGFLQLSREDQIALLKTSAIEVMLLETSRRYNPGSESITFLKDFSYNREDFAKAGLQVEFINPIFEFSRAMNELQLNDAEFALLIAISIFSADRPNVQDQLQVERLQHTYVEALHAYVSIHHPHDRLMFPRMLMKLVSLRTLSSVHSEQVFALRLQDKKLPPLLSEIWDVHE
Procedure: (§1) SPA assays were run in displacement mode using 30 nM [3H]-GW3965. Ligands were tested in 12-point dose-response curves starting at 20 uM. IC50 values were determined from dose-response and competition curves, which were generated by nonlinear regression analysis using GraphPad Prism.

[2] = target: T2, Oxysterols receptor LXR-beta (Homo sapiens, UniProt P55055); test: Scintillation Proximity Assay
T2 sequence (P55055 whole entry): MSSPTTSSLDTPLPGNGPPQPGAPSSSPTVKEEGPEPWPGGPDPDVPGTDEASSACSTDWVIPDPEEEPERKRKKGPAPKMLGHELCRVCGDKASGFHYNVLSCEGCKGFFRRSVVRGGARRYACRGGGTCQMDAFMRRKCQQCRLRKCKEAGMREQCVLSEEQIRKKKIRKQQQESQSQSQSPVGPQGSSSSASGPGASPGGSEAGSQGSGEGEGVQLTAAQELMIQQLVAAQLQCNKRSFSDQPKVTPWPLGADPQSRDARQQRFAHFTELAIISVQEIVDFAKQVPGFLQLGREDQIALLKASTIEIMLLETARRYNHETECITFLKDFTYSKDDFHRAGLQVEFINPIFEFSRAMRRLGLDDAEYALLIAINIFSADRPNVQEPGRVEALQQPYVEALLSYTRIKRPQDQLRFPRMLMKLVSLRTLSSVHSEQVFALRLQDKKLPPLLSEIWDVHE
Procedure: as §1

[3] = target: T1, Oxysterols receptor LXR-alpha; test: Fluorescence-Resonance Energy Transfer Assay; conditions: pH 7.2; 37 °C
Procedure: (§2) FRET-based co-activator recruitment assay measures agonist activities in a 384-well plate format. Reaction mixture containing His-tagged hLXR, biotinylated SRC-1 peptide, Europiumlabeled anti-His antibody, and allophycocyaninlabeled streptavidin (Prozyme) was prepared. Ligands were tested in 12-point dose-response curves, and FRET was read on an AnalystGT (Molecular Devices).

[4] = target: T2, Oxysterols receptor LXR-beta; test: Fluorescence-Resonance Energy Transfer Assay; conditions: pH 7.2; 37 °C
Procedure: as §2

Row | IC50 [1] [µM] | IC50 [2] [µM] | EC50 [3] [µM] | EC50 [4] [µM] | SMILES
1 | 5 | 0.066 | – | – | COc1cccc([C@H]2SC(c3ccc(Cl)cc3)=NN2C(=O)c2c(F)cc(F)cc2F)c1OC [(2R)-5-(4-chlorophenyl)-2-(2,3-dimethoxyphenyl)-3-[(2,4,6-trifluorophenyl)carbonyl]-2,3-dihydro-1,3,4-thiadiazole]
2 | – | – | 0.4 | 0.21 | COc1ncccc1C1SC(c2ccc(F)cc2)=NN1C(=O)c1c(F)cc(F)cc1F (centres undefined) [5-(4-fluorophenyl)-2-(2-methoxypyridin-3-yl)-3-[(2,4,6-trifluorophenyl)carbonyl]-2,3-dihydro-1,3,4-thiadiazole]
3 | 0.121 | 0.023 | – | – | O=C(O)Cc1cccc(OCCCN(Cc2cccc(C(F)(F)F)c2Cl)CC(c2ccccc2)c2ccccc2)c1 [2-{3-[3-({[2-chloro-3-(trifluoromethyl)phenyl]methyl}(2,2-diphenylethyl)amino)propoxy]phenyl}acetic acid]
4 | 9.8 | 0.3 | – | 0.3 | COc1cccc(C2SC(c3ccc(Cl)cc3)=NN2C(=O)c2c(F)cc(F)cc2F)c1OC (racemic) [5-(4-chlorophenyl)-2-(2,3-dimethoxyphenyl)-3-[(2,4,6-trifluorophenyl)carbonyl]-2,3-dihydro-1,3,4-thiadiazole]
